We go through one molecule from paper PMC6934184, “Selective DNA-PKcs inhibition extends the therapeutic index of localized radiotherapy and chemotherapy” (The Journal of Clinical Investigation, 2019).

Broadly, the inhibition is the change of the read-out against control, counted positive when it falls.

The experiment has as its target T1, CDK9/cyclin T1 (Homo sapiens, UniProt P50750).
T1 construct: purchased Thermo Fisher Scientific (Life Technologies) SelectScreen
Description: SelectScreen Adapta. Format: biochemical. A digest of the protocol:
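SelectScreen broad panel; activity (Z'LYTE, Adapta) plus binding formats. ATP: Km app for CSF1R Z'LYTE; 10 for CAMK1 Adapta. Readout = % per kinase.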

Molecules are shown by their SMILES.

T1 sequence (P50750 whole entry): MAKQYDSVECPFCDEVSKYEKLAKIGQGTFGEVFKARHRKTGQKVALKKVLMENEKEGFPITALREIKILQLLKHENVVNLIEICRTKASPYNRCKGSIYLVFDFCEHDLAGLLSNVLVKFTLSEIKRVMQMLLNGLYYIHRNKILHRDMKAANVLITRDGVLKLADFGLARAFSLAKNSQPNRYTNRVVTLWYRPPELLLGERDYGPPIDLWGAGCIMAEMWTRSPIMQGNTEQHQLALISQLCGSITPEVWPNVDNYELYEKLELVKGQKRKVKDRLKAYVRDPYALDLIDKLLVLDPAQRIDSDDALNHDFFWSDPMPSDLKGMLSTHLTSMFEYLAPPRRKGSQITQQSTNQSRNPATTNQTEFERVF
T1 sequence (O60563 whole entry partner): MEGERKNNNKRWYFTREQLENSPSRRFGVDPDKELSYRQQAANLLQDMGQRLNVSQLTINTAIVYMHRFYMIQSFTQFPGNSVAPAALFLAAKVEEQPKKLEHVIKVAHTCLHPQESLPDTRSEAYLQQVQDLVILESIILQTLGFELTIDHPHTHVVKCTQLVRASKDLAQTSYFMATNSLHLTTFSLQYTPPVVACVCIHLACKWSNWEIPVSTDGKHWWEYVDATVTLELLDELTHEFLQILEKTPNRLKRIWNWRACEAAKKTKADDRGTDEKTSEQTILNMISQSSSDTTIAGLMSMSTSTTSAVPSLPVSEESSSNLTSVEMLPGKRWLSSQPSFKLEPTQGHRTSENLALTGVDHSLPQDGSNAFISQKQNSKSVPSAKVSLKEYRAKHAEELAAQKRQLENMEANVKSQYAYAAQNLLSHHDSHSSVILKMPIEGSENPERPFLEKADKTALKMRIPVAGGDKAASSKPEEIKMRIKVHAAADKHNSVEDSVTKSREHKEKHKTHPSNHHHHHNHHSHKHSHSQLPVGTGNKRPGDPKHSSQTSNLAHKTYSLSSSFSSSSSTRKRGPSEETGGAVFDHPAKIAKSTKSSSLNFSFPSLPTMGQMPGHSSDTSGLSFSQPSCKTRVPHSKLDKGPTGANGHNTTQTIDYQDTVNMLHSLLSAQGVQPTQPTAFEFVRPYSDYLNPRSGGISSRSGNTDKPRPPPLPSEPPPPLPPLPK

For `CN(C(=O)CN1CCOCC1)c1ccc2sc3c(-c4cccc5c(=O)cc(N6CC7CCC(C6)O7)oc45)cccc3c2c1` [NU5455], the inhibition at 1 µM was -1.4%.
